Reference: patent US20260226031A1, “NOVEL COMPOUNDS” (NRG THERAPEUTICS LTD., priority 2023, published 2026)

Tests used:
mPTP [1] = experiment: mPTP activity (Ca2+ retention) assay in isolated rat liver mitochondria; assay type: biochemical; settings: isolated rat liver mitochondria; Fluo5N fluorescence at 10 min after CaCl2 (75 μM) bolus; DMSO 0%, 5 μM cyclosporin A 100% inhibition
Outline: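 Freshly isolated female Sprague Dawley rat liver mitochondria with succinate, rotenone and Fluo5N were preincubated 10 min at RT with compounds (final 30 μM to 1 nM), then challenged with CaCl2. Fluorescence at 10 min gave % inhibition versus DMSO (0%) and 5 μM cyclosporin A (100%); pIC50 calculated.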

mPTP [2] = experiment: mPTP activity (Ca2+ retention) assay in isolated rat brain mitochondria; assay type: biochemical; settings: isolated rat brain mitochondria; Fluo5N fluorescence at 10 min after Ca2+ (75 μM) bolus
Outline: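 Mitochondria freshly isolated from brains of perfused female Sprague Dawley rats, digitonin-treated, in pH 7.4 mannitol/MOPS/KCl buffer with pyruvate, malate, ADP and oligomycin A. Incubated with compound 10 min at RT with 2 μM Fluo5N. Fluorescence then read every 3 s for 10 min.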

Compound	mPTP Rat liver pIC50* (mPTP [1])	mPTP Rat brain pIC50 (mPTP [2])
O=C(c1cncc(=O)[nH]1)N1CC(c2cc(Cl)ccc2F)C2(CCC2)C1 (single isomer, unassigned) [Example 32b]	<4.52	<4.52
O=C(c1cncc(O)n1)N1CC(c2ccccc2)C2(CCC2)C1 (single isomer, unassigned) [Example 6b, (6-hydroxypyrazin-2-yl)(8-phenyl-6-azaspiro[3.4]octan-6-yl)methanone]	4.59	<4.52
O=C(c1nccc(=O)[nH]1)N1CC(c2ccccc2)C2(CC(F)C2)C1 (single isomer, unassigned) [Example 25d, 2-(2-fluoro-8-phenyl-6-azaspiro[3.4]octane-6-carbonyl)pyrimidin-4(3H)-one]	<4.52	<4.52
